Measurements published in US20210403465A1, “QUINAZOLINYL-INDAZOLE DERIVATIVES AND THEIR USE AS INHIBITORS OF HUMAN IMMUNODEFICIENCY VIRUS REPLICATION” (ViiV HEALTHCARE UK (NO.5) LIMITED, priority 2018, published 2021).

Tests used:
[1] = system: recombinant NL4-3 virus (Renilla luciferase) in MT-2 cells; assay: HIV cell culture assay (antiviral activity, luciferase readout in MT-2 cells); format: cell-based; settings: NL43
Experimental: HIV cell culture assay—MT-2 cells, 293T cells and the proviral DNA clone of NL4-3 virus were obtained from the NIH AIDS Research and Reference Reagent Program. MT-2 cells were propagated in RPMI 1640 media supplemented with 10% heat inactivated fetal bovine serum (FBS), […]. The 293T cells were propagated in DMEM media supplemented with 10% heat inactivated FBS, […]. A recombinant NL4-3 proviral clone, in which a section of the nef gene was replaced with the Renilla luciferase gene, was used to make the reference virus used in these studies. The recombinant virus was prepared through transfection of the recombinant NL4-3 proviral clone into 293T cells using Transit-293 Transfection Reagent from Mirus Bio LLC (Madison, Wis.). Supernatant was harvested after 2-3 days and the amount of virus present was titered in MT-2 cells using luciferase enzyme activity as a marker by measuring luciferase enzyme activity. Luciferase was quantitated using the EnduRen Live Cell Substrate from Promega (Madison, Wis.). Antiviral activities of compounds toward the recombinant virus were quantified by measuring luciferase activity in MT-2 cells infected for 4-5 days with the recombinant virus in the presence of serial dilutions of the compound.
The 50% effective concentration (EC50) was calculated by using the exponential form of the median effect equation where (Fa)=1/[1+(ED50/drug conc.)m] (Johnson V A, Byington R T. Infectivity Assay. In Techniques in HIV Research. ed. Aldovini A, Walker B D. 71-76. New York: Stockton Press. 1990). The 50% inhibitory concentration (EC50) was calculated by using the exponential form of the median effect equation where percent inhibition=1/[1+(EC50/drug concentration)m], where m is a parameter that reflects the slope of the concentration-response curve.

[2] = Compound cytotoxicity, XTT-based colorimetric assay; format: cell-based; settings: human; uninfected MT2 cells, day 4, XTT
Experimental: Compound cytotoxicity and the corresponding CC50 values were determined using the same protocol as described in the antiviral assay except that uninfected cells were used. Cytotoxicity was assessed on day 4 in uninfected MT2 cells by using a XTT (2,3-bis[2-Methoxy-4-nitro-5-sulfophenyl]-2H-tetrazolium-5-carboxyanilide inner salt)-based colorimetric assay (Sigma-Aldrich, St Louis, Mo.).

Row | Structure (SMILES) | EC50 [1] | CC50 at 4 days [2]
1 | Cn1nc(NS(C)(=O)=O)c2c(Cl)ccc(-n3c([C@H](Cc4cc(F)cc(F)c4)NC(=O)Cn4nc(C(F)F)c5c4C(F)(F)[C@@H]4C[C@H]54)nc4cc(OCCN5CCS(=O)(=O)CC5)ccc4c3=O)c21 (atropisomer, axis not shown; (P)) [Example 4, N—((S)-1-((3P)-3-(4-chloro-1-methyl-3-(methylsulfonamido)-1H-indazol-7-yl)-7-(2-(1,1-dioxidothiomorpholino)ethoxy)-4-oxo-3,4-dihydroquinazolin-2-yl)-2-(3,5-difluorophenyl)ethyl)-2-((3bS,4aR)-3-(difluoromethyl)-5,5-difluoro-3b,4,4a,5-tetrahydro-1H-cyclopropa[3,4]cyclopenta[1,2-c]pyrazol-1-yl)acetamide] | 0.08 nM | > 1000 nM
2 | Cn1nccc1CCOc1ccc2c(=O)n(-c3ccc(Cl)c4c(NS(C)(=O)=O)nn(C)c34)c([C@H](Cc3cc(F)cc(F)c3)NC(=O)Cn3nc(C(F)F)c4c3C(F)(F)[C@@H]3C[C@H]43)nc2c1 (atropisomer, axis not shown; (P)) [Example 7, N—((S)-1-((3P)-3-(4-chloro-1-methyl-3-(methylsulfonamido)-1H-indazol-7-yl)-7-(2-(1-methyl-1H-pyrazol-5-yl)ethoxy)-4-oxo-3,4-dihydroquinazolin-2-yl)-2-(3,5-difluorophenyl)ethyl)-2-((3bS,4aR)-3-(difluoromethyl)-5,5-difluoro-3b,4,4a,5-tetrahydro-1H-cyclopropa[3,4]cyclopenta[1,2-c]pyrazol-1-yl)acetamide] | 0.074 nM | > 1000 nM
3 | Cn1nc(NS(C)(=O)=O)c2c(Cl)ccc(-n3c([C@H](Cc4cc(F)cc(F)c4)NC(=O)Cn4nc(C(F)F)c5c4C(F)(F)[C@@H]4C[C@H]54)nc4cc(OCC5CCCC5)ccc4c3=O)c21 (atropisomer, axis not shown; (P)) [Example 2, N—((S)-1-((3P)-3-(4-chloro-1-methyl-3-(methylsulfonamido)-1H-indazol-7-yl)-7-(cyclopentylmethoxy)-4-oxo-3,4-dihydroquinazolin-2-yl)-2-(3,5-difluorophenyl)ethyl)-2-((3bS,4aR)-3-(difluoromethyl)-5,5-difluoro-3b,4,4a,5-tetrahydro-1H-cyclopropa[3,4]cyclopenta[1,2-c]pyrazol-1-yl)acetamide] | 0.18 nM | > 1000 nM
4 | Cn1nc(NS(C)(=O)=O)c2c(Cl)ccc(-n3c([C@H](Cc4cc(F)cc(F)c4)NC(=O)Cn4nc(C(F)F)c5c4C(F)(F)[C@@H]4C[C@H]54)nc4cc(OC5CCCC5)ccc4c3=O)c21 (atropisomer, axis not shown; (P)) [Example 9, N—((S)-1-((3P)-3-(4-chloro-1-methyl-3-(methylsulfonamido)-1H-indazol-7-yl)-7-(cyclopentyloxy)-4-oxo-3,4-dihydroquinazolin-2-yl)-2-(3,5-difluorophenyl)ethyl)-2-((3bS,4aR)-3-(difluoromethyl)-5,5-difluoro-3b,4,4a,5-tetrahydro-1H-cyclopropa[3,4]cyclopenta[1,2-c]pyrazol-1-yl)acetamide] | 0.22 nM | > 1000 nM
